The subject of assay [1] is Mouse mammary carcinoma 4T1 cells. The experiment in a line: Anchorage-independent tumor cell growth assay. The format is cell-based. Conditions: Mus musculus, 4T1. The procedure: Cells are cultured for 2 h and inhibitors are added at various concentrations in a final concentration of 0.1% DMSO. After 48 h, cell growth is assayed with the cell counting kit-8 (Wako Pure Chemical), which uses a water soluble tetrazolium salt WST8. Twenty μL of the reagent is added into each well and cells are further cultured for 2 h. The optical density is measured at 450 nm.

Assay [2] has as its system Jurkat T human leukemic cell line. The assay is described as follows: In vitro T cell migration assay. It is filed as cell-based. Here is the method:
Inhibitory activities of FAK inhibitors on the mobility of immune cells are secured by the following in vitro study. […] Cell mobility is appraised through the number of cells migrated into lower chamber by labeling with calcein-AM (Molecular Probes, Netherlands) at 8 μg/ml in HBSS for 1 h.

In another assay the target is T1, human IGF-IR (Homo sapiens, UniProt P08069).
T1 construct: transfected with human IGF-IR cDNA (complete human IGF-IR cDNA); expressed in transfected cells; host or cells: NIH-3T3 mouse fibroblasts
T1 sequence (P08069 31-1367): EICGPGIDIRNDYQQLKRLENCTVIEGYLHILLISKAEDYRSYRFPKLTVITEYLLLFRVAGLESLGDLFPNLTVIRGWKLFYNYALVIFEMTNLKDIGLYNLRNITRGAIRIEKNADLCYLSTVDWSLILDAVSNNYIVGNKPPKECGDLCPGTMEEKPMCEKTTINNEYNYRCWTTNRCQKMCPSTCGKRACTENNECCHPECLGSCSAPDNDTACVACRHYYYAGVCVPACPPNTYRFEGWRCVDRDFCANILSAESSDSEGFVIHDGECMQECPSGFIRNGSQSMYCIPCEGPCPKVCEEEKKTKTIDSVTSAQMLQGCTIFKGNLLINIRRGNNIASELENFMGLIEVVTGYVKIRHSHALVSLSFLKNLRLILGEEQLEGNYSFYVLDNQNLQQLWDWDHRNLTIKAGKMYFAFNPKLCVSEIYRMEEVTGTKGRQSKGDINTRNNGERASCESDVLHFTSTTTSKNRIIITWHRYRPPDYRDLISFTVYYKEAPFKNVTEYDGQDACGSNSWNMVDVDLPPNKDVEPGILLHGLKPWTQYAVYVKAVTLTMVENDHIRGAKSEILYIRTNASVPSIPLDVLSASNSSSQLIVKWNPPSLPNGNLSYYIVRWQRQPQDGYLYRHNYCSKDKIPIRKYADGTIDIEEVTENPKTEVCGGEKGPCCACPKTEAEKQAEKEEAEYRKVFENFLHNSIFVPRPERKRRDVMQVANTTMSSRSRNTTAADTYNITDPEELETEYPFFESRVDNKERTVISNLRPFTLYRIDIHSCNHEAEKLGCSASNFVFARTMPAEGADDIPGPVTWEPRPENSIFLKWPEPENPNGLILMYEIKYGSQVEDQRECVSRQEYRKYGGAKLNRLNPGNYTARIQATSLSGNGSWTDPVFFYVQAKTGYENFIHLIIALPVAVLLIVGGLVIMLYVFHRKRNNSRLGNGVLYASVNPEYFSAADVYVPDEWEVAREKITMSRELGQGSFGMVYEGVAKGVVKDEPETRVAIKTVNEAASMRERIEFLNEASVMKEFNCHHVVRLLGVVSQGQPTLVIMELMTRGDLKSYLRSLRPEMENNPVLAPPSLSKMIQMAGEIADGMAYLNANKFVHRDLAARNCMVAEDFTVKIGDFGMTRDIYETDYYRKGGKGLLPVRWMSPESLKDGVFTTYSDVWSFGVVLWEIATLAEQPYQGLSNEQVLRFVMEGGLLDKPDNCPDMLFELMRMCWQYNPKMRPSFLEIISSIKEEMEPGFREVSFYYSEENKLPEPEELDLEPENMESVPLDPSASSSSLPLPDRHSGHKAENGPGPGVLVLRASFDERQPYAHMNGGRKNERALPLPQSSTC
The experiment in a line: IGF-I induced IGF-IR autophosphorylation, cellular Capture ELISA. The format is cell-based. Conditions: read-out: IGF-1R IC50. The procedure:
In this assay the activity of the compounds of the invention against Insulin-like growth factor I (IGF-I) induced autophosphorylation of the IGF-IR is determined.
The cells which overexpress human IGF-IR are cultured in Dulbecco's minimal essential (DMEM) medium, containing 10% Fetal Calf Serum (FCS). […] On day 3 the medium is discarded and the cells are incubated for 24 h in minimal medium (DMEM, containing 0.5% FCS).
The medium is discarded and the cells are washed twice with PBS/O (=Phosphate-Buffered Saline without CaCl2) and lysed for 15 min on ice with 50 μl/well RIPA-buffer [50 mM Tris.HCl, pH=7.2, 120 mM NaCl, 1 mM EDTA, 6 mM EGTA, 1% NP-40, 20 mM NaF, 1 mM benzamidine, 15 mM sodium pyrophosphate, 1 mM Phenyl methyl sulphonyl fluoride (PMSF) and 0.5 mM Na3VO4] and shaken for 10 min using a 96-well plate shaker (=cellular extracts).
The plates are washed twice with 0.05% (v/v) Tween-20 in Phosphate-Buffered Saline (PBS) and once with nanopure H2O. […] After blocking, the plates are washed once with nanopure H2O.
After incubating the extracts and the secondary antibody for 2 h at 4° C., the extracts are discarded, the plates are washed twice with 0.05% (v/v) Tween-20 in PBS and once with nanopure water.
90 μl/well AP substrate (CDP-Star; obtained from Tropix; Cat. No.: MS100RY) are then added and the plates are incubated for 45 min at RT in the dark, followed by measuring AP activity in a Packard Top Count Microplate Scintillation Counter. The IC50 values for the compounds of formula I are calculated via linear regression analysis using the GraphPad Instat program (GraphPad Software, USA).

In a further assay the target is human FAK kinase domain (Homo sapiens, UniProt Q05397). The assay is described as follows: FAK assay (FRET, Biot-Y397 peptide).
Chain of human FAK kinase domain (Q05397 384-706): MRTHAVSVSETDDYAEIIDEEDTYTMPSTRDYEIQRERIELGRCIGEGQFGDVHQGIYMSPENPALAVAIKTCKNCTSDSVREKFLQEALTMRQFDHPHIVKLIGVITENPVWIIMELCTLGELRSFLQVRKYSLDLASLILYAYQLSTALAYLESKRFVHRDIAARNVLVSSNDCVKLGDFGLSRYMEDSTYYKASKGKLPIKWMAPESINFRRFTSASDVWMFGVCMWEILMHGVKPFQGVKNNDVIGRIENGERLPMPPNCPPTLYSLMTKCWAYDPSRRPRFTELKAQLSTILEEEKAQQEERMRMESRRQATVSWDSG
In a further assay the target is FAK (Tyr397) (Mus musculus, UniProt P34152). The experiment in a line: Phosphorylation levels of FAK at Tyr397 (sandwich ELISA, 4T1 cells).
Chain of FAK (Tyr397) (P34152 whole entry): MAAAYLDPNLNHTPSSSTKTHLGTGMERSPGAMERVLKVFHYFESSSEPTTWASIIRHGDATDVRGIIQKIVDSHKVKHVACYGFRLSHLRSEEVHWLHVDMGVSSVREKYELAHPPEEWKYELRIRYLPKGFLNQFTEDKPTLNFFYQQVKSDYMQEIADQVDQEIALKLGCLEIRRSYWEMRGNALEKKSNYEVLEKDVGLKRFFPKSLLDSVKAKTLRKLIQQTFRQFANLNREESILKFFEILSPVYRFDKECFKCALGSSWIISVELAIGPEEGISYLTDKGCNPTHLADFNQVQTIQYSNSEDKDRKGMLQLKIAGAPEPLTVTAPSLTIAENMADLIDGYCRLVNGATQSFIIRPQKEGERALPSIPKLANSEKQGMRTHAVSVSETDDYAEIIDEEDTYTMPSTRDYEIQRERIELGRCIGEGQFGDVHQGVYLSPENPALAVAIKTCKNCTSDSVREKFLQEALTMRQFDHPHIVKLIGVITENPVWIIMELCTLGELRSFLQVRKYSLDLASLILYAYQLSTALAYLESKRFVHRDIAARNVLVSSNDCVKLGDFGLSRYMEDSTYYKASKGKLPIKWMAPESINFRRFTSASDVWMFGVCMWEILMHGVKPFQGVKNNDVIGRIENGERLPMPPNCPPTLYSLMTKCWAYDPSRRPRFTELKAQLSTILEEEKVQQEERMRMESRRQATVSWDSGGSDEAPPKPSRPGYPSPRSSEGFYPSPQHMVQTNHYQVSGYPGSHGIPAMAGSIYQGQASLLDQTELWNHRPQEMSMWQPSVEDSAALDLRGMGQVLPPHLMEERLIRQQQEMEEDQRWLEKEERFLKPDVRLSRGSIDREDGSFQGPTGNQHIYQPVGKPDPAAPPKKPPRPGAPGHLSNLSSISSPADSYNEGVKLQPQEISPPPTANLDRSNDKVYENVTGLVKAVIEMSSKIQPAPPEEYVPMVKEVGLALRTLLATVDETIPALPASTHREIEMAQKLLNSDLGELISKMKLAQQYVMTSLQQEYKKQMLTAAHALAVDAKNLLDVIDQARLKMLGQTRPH

What is called IC50 is the concentration that gives 50% inhibition.

Experimental for FAK (Tyr397): Phosphorylation levels of FAK at Tyr397 is quantified by the sandwich ELISA. Mouse mammary carcinoma 4T1 cells (1×10^5) are plated in wells of 96-well culture plates and incubated with or without various concentrations of inhibitors for 1 h in Dulbecco's modified eagle medium containing 0.5% BSA. The medium is removed and cells are lysed in 200 μL 50 mM Tris-HCl, pH 7.4, containing 1% NP-40, 0.25% sodium deoxycholate, 150 mM NaCl, 1 mM EDTA, 1 mM PMSF, 1 mM Na3VO4, 1 mM NaF, 1 μg/mL aprotinin, 1 μg/mL leupeptin and 1 μg/mL pepstatin. […] The concentration of compound causing 50% reduction of phosphorylation level of FAK is determined.
Experimental for human FAK kinase domain: All steps are performed in a 96-well black microtiter plate. […] The enzyme reaction is started by addition of 5 μL of 5 μM ATP in water and the mixture is incubated for 3 hours at 37° C. […] The results are shown as percent inhibition of enzyme activity. […] IC50 values are determined by non-linear curve fit analysis using the OriginPro 6.1 program (OriginLab).

In the case of `COc1cc(N2CCN(C)CC2)ccc1Nc1ncc(Cl)c(Nc2ccccc2S(=O)(=O)NC(C)C)n1` [Example 19-5], the values for the IC50 (in assay [1]; in assay [2]; on human IGF-IR) were 670 nM, 70 nM and 470 nM, respectively.

Regarding `CNS(=O)(=O)c1ccccc1Nc1nc(Nc2ccc(OC3CCN(C)C3)cc2OC)ncc1Cl` (stereo not shown) [Example 20-29], the IC50 is 50 nM in assay [1], 310 nM at human IGF-IR, 6.1 nM at human FAK kinase domain and 200 nM against FAK (Tyr397).

Regarding `CCCS(=O)(=O)c1ccccc1Nc1nc(Nc2ccc(C(=O)N3CCOCC3)cc2OC)ncc1Cl` [Example 26-20], the IC50 is 490 nM on human IGF-IR, 10 nM against human FAK kinase domain and 140 nM on FAK (Tyr397).

These data come from patent publication US8263590B2, “Pyrimidine derivatives” (priority 2003, dated 2012).
